From US20040086504A1, “Cyr61 as a target for treatment and diagnosis of breast cancer” (priority 2003, published 2004) come the findings set out here.

Starred links: 1 amine or outer side, 2 acyl side, 3 side chain; linkers in the order of their positions; H or OH if unused. Positions of bridges follow the written chain, without caps; N, C: chain ends. Non-standard residues stand in square brackets, D forms with d. Residues, ends and D or L forms follow the SMILES beside them. Chains are numbered I, II in the order given. Actinocin(9to1) = Cc1c2oc3c(C)ccc(C(=O)[*:1])c3nc-2c(C(=O)[*:2])c(N)c1=O; NMeV = CN[C@H](C(=O)O)C(C)C; Sar = CNCC(=O)O

Test [1] concerns Cyr61. As to the kind of experiment: Cyr61 mRNA/protein expression in MDA-MB-453 cells (Northern/Western blot). The format is cell-based, human. The following applies: for effect on DHT induction of Cyr61: co-treatment with 1 nM DHT.
Test [2] deals with Cyr61. The test can be described thus: Cyr61 mRNA/protein expression in MCF-7 cells (Northern/Western blot). The following applies: for block of 17β-estradiol upregulation of Cyr61: co-treatment with 17β-estradiol. A general note: In western blotting, separated proteins are transferred to a membrane and probed.
Test [3] relates to Cyr61. As to the kind of experiment: Cyr61 mRNA expression in MDA-MB-231 cells (Northern blot). The format is cell-based, human. The following applies: AR- MDA-MB-231 cells. As to the method: (§1) Incubation and analysis were performed according to techniques described in Example 1.
(§2) Total cellular RNA was isolated from cultured adenocarcinoma cells by guanidium isothiocynate lysis followed by phenol/chloroform extraction.

Test [4] deals with Cyr61. As to the kind of experiment: Cyr61 mRNA expression in ZR-75-1 cells (Northern blot). Format: cell-based, human. As to the method: as §1, §2
For test [5], the system named is Cyr61. The test can be described thus: Cyr61 mRNA/protein expression in T47D cells (Northern/Western blot).

On to `CC(C)(O)C(=O)Nc1ccc([N+](=O)[O-])c(C(F)(F)F)c1` [2-OH flutamide], for which the “effect on DHT induction of Cyr61” value in the test with Cyr61 [1] is “completely abrogated”.
Consider `C[C@]12CC[C@@H]3c4ccc(O)cc4CC[C@H]3[C@@H]1CC[C@@H]2O` [17β-estradiol], for which the “upregulation of Cyr61 mRNA” value with Cyr61 [2] was “upregulation”. Besides, the “effects of EGF on mRNA transcription” value in the test with Cyr61 [2] (with EGF) is given as “stimulates”.
With `C[C@]12CCC(=O)C[C@@H]1CC[C@@H]1[C@@H]2CC[C@]2(C)[C@@H](O)CC[C@@H]12` [DHT], in the test on Cyr61 [1], the “maximum expression of Cyr61 mRNA and protein” value was 8 fold; the “time of maximum expression of Cyr61 mRNA and protein” value is on record as at most 0.5 h. Besides, in the test with Cyr61 [1] (dose-dependent), the “concentration of maximal expression of Cyr61 mRNA and protein” value worked out at 1.0 nM. For the same compound, the 50% effective concentration (EC50) in the test with Cyr61 [1] (read-out: EC50 for upregulation of Cyr61 mRNA and protein) was around 0.3 nM. The “expression of Cyr61” value in the test on Cyr61 [3] is on record as “not enhanced”. For the same compound, in the test with Cyr61 [4], the “induction of Cyr61” value is given as “lack of induction”.
For `CCC(=O)[C@@]1(C)CC[C@H]2[C@@H]3CCC4=CC(=O)CCC4=C3CC[C@@]21C` [R5020], the “induction of Cyr61 mRNA transcription” value in the test with Cyr61 [5] is “dose-dependent manner”. Moreover, the “effects of EGF on mRNA transcription” value in the test on Cyr61 [5] (with EGF) is “stimulates”.
Regarding `Cc1c2oc3c(C)ccc(C(=O)N[C@@H]4C(=O)N[C@H](C(C)C)C(=O)N5CCC[C@H]5C(=O)N(C)CC(=O)N(C)[C@@H](C(C)C)C(=O)O[C@@H]4C)c3nc-2c(C(=O)N[C@@H]2C(=O)N[C@H](C(C)C)C(=O)N3CCC[C@H]3C(=O)N(C)CC(=O)N(C)[C@@H](C(C)C)C(=O)O[C@@H]2C)c(N)c1=O` [actinomycin D] (I: T[dV]P[Sar][NMeV] / II: T[dV]P[Sar][NMeV]; ester I:1-I:C, II:1-II:C; linker I:N-II:N via Actinocin(9to1)), in the test with Cyr61 [5] (co-treatment with R5020), the “block of R5020 upregulation of Cyr61” value is on record as “fully blocked”. In addition, the “effect on DHT induction of Cyr61” value in the test with Cyr61 [1] was “completely blocked”. For the same compound, the “block of 17β-estradiol upregulation of Cyr61” value with Cyr61 [2] is on record as “fully blocked”.
As to `C[C@@H]1C[C@@H]([C@H](O)CC2CC(=O)NC(=O)C2)C(=O)[C@@H](C)C1` [cycloheximide], in the test with Cyr61 [1], the “Cyr61 mRNA on co-treatment with DHT compared to DHT treatment alone” value is “significant overexpression” and the “effect on DHT induction of Cyr61” value is listed as “not observed”. Moreover, the “block of 17β-estradiol upregulation of Cyr61” value in the test on Cyr61 [2] was “not”.
“EGF: epidermal growth factor (NSDSECPLSHDGYCLHDGVCMYIEALDKYACNCVVGYIGERCQYRDLKWWELR; UniProt P01133 971-1023, looked up)”: the “expression of Cyr61” value in the test on Cyr61 [3] is “rapidly induced”. In addition, the “time to maximal levels of Cyr61 mRNA” value with Cyr61 [4] is at most 0.5 h.

What is called EC50 is the concentration giving half of the maximal effect.
